# ChEMBL document CHEMBL5346859, “Dual-target Janus kinase (JAK) inhibitors: Comprehensive review on the JAK-based strategies for treating solid or hematological malignancies and immune-related diseases” (Eur J Med Chem, 2022)
# Columns and labels:
# [1] = biological target: T1, Tyrosine-protein kinase JAK2 (Homo sapiens, UniProt O60674); experiment: Inhibition of recombinant GST-tagged JAK2 catalytic domain (unknown origin) using pEY (4:1) as substrate incubated for 120 mins in presence of 33P-labeled ATP
# T1 sequence (O60674 whole entry, the tested form may be a part): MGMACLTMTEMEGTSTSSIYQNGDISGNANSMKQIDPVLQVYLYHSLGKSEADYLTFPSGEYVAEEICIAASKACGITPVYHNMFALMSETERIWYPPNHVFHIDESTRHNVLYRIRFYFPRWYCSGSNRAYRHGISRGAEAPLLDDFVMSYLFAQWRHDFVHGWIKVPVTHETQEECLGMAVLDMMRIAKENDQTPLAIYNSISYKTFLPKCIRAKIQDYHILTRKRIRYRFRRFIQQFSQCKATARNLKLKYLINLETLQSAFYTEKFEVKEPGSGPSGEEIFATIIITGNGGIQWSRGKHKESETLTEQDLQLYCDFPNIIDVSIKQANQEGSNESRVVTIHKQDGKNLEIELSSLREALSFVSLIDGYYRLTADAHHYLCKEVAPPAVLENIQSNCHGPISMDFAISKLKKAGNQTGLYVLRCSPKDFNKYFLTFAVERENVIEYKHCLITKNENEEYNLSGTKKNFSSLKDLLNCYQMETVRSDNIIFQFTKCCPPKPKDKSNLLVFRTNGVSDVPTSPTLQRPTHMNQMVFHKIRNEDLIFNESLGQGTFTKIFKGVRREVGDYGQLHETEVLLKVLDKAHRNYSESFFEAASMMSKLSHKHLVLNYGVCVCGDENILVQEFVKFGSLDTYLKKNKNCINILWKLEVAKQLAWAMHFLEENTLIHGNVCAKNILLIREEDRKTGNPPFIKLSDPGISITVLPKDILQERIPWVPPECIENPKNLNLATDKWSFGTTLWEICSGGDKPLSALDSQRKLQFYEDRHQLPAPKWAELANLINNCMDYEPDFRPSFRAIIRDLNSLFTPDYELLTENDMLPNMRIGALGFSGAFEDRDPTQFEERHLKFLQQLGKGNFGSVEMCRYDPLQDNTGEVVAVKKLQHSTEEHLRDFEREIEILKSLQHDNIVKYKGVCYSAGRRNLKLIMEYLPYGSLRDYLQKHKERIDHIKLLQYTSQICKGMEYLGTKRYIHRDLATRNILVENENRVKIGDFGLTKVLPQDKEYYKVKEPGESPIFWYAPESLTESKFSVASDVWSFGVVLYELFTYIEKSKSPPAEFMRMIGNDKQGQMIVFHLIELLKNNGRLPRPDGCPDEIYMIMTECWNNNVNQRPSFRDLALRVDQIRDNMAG
# [2] = biological target: Tyrosine-protein kinase Tec (Homo sapiens, UniProt P42680); experiment: Inhibition of TEC (unknown origin) in presence of ATP
# [3] = biological target: T2, Tyrosine-protein kinase JAK1 (Homo sapiens, UniProt P23458); experiment: Inhibition of recombinant GST-tagged JAK1 catalytic domain (unknown origin) using pEY (4:1) as substrate incubated for 120 mins in presence of 33P-labeled ATP
# T2 sequence (P23458 whole entry, the tested form may be a part): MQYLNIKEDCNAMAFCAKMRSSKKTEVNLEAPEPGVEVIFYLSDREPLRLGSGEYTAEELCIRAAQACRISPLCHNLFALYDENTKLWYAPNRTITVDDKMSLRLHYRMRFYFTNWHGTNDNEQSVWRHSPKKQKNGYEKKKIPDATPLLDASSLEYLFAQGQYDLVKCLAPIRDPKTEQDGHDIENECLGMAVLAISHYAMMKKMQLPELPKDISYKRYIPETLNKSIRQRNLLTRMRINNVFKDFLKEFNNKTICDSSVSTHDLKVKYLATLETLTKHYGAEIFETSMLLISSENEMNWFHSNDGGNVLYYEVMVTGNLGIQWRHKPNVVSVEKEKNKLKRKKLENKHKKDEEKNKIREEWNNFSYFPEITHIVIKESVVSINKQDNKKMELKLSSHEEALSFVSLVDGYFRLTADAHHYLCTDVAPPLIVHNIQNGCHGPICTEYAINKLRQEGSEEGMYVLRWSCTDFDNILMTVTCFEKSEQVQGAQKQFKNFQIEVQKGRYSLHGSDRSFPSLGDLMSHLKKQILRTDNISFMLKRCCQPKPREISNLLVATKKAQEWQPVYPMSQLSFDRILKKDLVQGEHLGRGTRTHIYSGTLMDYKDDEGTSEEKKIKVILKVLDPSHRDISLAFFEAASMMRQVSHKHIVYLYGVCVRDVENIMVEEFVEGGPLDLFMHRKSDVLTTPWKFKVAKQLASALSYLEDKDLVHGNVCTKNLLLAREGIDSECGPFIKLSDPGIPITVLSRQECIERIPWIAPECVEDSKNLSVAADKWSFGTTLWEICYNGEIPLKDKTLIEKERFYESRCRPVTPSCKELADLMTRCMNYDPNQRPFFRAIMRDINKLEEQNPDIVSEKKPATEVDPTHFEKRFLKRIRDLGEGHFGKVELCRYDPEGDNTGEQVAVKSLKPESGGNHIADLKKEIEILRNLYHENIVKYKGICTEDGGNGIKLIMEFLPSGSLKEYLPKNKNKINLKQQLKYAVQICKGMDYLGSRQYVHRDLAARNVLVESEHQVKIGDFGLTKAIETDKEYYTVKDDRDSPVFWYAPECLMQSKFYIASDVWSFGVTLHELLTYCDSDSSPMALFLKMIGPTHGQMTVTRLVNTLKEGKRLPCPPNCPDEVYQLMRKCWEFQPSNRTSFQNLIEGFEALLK
# [4] = biological target: T3, Non-receptor tyrosine-protein kinase TYK2 (Homo sapiens, UniProt P29597); experiment: Inhibition of recombinant GST-tagged TYK2 catalytic domain (unknown origin) using pEY (4:1) as substrate incubated for 120 mins in presence of 33P-labeled ATP
# T3 sequence (P29597 whole entry, the tested form may be a part): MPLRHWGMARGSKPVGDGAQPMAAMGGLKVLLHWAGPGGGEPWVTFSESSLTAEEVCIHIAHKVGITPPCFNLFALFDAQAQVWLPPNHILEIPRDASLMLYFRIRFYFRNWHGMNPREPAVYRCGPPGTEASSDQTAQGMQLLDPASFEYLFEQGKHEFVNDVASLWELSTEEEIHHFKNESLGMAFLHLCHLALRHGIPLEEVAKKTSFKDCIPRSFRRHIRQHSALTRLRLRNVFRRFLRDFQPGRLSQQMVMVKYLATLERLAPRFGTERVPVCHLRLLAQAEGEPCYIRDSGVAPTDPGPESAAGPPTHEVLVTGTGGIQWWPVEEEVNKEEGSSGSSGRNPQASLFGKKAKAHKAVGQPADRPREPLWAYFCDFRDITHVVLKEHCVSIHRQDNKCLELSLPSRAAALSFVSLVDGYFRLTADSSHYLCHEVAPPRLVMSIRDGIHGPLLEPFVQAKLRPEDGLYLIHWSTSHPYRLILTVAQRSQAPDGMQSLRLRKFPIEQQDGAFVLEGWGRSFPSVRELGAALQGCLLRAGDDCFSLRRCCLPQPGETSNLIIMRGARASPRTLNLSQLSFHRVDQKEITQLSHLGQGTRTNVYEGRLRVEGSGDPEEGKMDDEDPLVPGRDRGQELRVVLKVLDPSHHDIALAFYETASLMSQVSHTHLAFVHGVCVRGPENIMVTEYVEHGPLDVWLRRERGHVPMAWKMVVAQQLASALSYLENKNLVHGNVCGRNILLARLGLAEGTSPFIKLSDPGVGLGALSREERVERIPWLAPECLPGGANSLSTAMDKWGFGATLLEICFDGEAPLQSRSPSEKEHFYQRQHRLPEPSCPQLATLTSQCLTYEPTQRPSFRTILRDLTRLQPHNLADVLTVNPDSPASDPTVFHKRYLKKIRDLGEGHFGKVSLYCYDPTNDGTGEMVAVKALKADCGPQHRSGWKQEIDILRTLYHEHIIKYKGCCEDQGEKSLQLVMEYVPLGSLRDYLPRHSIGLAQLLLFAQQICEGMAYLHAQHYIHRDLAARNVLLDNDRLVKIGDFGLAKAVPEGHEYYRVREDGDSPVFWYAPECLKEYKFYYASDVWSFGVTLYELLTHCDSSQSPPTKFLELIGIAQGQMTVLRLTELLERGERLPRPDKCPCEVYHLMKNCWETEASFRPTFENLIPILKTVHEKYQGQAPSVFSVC
# [5] = biological target: T4, Proto-oncogene tyrosine-protein kinase Src (Homo sapiens, UniProt P12931); experiment: Inhibition of recombinant GST-tagged c-Src catalytic domain (unknown origin) using pEY (4:1) as substrate incubated for 120 mins in presence of 33P-labeled ATP
# T4 sequence (P12931 2-536 limits assumed): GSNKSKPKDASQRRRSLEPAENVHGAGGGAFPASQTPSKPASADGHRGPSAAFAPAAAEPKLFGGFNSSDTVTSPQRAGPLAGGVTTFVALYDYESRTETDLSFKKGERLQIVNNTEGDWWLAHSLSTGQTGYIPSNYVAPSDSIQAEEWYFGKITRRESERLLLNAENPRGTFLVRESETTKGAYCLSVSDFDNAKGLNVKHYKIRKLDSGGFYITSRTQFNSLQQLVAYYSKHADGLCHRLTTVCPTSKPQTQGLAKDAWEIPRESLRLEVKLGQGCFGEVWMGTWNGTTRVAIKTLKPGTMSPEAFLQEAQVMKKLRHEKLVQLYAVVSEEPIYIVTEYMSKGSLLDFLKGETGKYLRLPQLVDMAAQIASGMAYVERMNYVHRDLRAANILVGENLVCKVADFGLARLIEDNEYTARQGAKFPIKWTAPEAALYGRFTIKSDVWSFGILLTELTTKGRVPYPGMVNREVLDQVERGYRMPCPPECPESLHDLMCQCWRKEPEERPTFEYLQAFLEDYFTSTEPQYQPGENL
# [6] = tested on: A2058; experiment: Antitumor activity against human A2058 cells xenografted in NSG mouse assessed as tumor growth inhibition at 25 mg/kg, po administered twice daily for 18 days relative to control; format: functional; details: A2058, 432 h, time 18 day, read-out: TGI
# [7] = biological target: T2, Tyrosine-protein kinase JAK1; experiment: Inhibition of JAK1 (unknown origin) by flow cytometry analysis
# [8] = biological target: T1, Tyrosine-protein kinase JAK2; experiment: Inhibition of JAK2 (unknown origin) by flow cytometry analysis
# [9] = biological target: Tyrosine-protein kinase JAK3 (Homo sapiens, UniProt P52333); experiment: Inhibition of JAK3 (unknown origin) by flow cytometry analysis
# [10] = biological target: T3, Non-receptor tyrosine-protein kinase TYK2; experiment: Inhibition of TYK2 (unknown origin) by flow cytometry analysis
# [11] = biological target: Tyrosine-protein kinase SYK (Homo sapiens, UniProt P43405); experiment: Inhibition of SYK (unknown origin) by flow cytometry analysis
# [12] = biological target: T4, Proto-oncogene tyrosine-protein kinase Src; experiment: Inhibition of recombinant c-Src (unknown origin) incubated for 120 mins in presence of [33P]-ATP by hotspot assay
# [13] = biological target: T2, Tyrosine-protein kinase JAK1; experiment: Inhibition of recombinant JAK1 (unknown origin) incubated for 120 mins in presence of [33P]-ATP by hotspot assay
# [14] = biological target: T1, Tyrosine-protein kinase JAK2; experiment: Inhibition of recombinant JAK2 (unknown origin) incubated for 120 mins in presence of [33P]-ATP by hotspot assay
# [15] = biological target: T3, Non-receptor tyrosine-protein kinase TYK2; experiment: Inhibition of recombinant TYK2 (unknown origin) incubated for 120 mins in presence of [33P]-ATP by hotspot assay
# [16] = tested on: MIA PaCa-2; experiment: Antiproliferative activity against human MIA PaCa-2 cells assessed as inhibition of cell growth incubated for 48 hrs by MTS assay; format: functional, cell-based; details: MIA PaCa-2, 48 h
# [17] = biological target: Mitogen-activated protein kinase kinase kinase 9 (Homo sapiens, UniProt P80192); experiment: Inhibition of MLK1 (unknown origin)
# [18] = biological target: Macrophage colony-stimulating factor 1 receptor (Homo sapiens, UniProt P07333); experiment: Inhibition of FMS (unknown origin)
# [19] = biological target: Serine/threonine-protein kinase MARK1 (Homo sapiens, UniProt Q9P0L2); experiment: Inhibition of MARK1 (unknown origin)
# [20] = biological target: Serine/threonine-protein kinase MARK2 (Homo sapiens, UniProt Q7KZI7); experiment: Inhibition of PAR1B-a (unknown origin)
# Chain of Serine/threonine-protein kinase MARK2 (Q7KZI7 whole entry): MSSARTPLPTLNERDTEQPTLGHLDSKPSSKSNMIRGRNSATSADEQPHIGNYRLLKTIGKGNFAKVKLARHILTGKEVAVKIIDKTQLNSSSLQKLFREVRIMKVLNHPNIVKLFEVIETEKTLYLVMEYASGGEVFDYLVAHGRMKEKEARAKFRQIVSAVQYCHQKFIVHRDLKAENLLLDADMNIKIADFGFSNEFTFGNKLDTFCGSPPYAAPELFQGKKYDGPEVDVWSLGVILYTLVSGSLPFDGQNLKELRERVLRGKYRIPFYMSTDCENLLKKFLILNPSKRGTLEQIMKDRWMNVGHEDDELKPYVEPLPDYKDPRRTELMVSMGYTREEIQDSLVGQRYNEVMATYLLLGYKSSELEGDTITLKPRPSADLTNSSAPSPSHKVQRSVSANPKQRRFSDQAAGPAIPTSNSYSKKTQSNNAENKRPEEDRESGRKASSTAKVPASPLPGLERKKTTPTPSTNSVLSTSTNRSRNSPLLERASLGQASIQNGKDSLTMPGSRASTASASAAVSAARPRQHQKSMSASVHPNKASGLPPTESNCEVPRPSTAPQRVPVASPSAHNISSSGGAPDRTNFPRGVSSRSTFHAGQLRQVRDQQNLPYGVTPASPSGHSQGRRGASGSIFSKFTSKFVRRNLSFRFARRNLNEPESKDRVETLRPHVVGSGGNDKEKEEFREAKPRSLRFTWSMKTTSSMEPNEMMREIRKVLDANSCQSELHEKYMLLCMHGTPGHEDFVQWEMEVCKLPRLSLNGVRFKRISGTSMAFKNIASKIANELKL
# [21] = biological target: Serine/threonine-protein kinase 3 (Homo sapiens, UniProt Q13188); experiment: Inhibition of MST2 (unknown origin)
# [22] = biological target: Mitogen-activated protein kinase kinase kinase kinase 2 (Homo sapiens, UniProt Q12851); experiment: Inhibition of GCK (unknown origin)
# [23] = biological target: Ribosomal protein S6 kinase alpha-3 (Homo sapiens, UniProt P51812); experiment: Inhibition of RSK2 (unknown origin)
# [24] = biological target: Ribosomal protein S6 kinase alpha-6 (Homo sapiens, UniProt Q9UK32); experiment: Inhibition of RSK4 (unknown origin)
# [25] = biological target: Serine/threonine-protein kinase Chk1 (Homo sapiens, UniProt O14757); experiment: Inhibition of CHK1 (unknown origin)
# [26] = biological target: Vascular endothelial growth factor receptor 3 (Homo sapiens, UniProt P35916); experiment: Inhibition of FLT4 (unknown origin)
# [27] = biological target: Proto-oncogene tyrosine-protein kinase receptor Ret (Homo sapiens, UniProt P07949); experiment: Inhibition of RET (unknown origin)
# [28] = biological target: Tyrosine-protein kinase ITK/TSK (Homo sapiens, UniProt Q08881); experiment: Inhibition of ITK (unknown origin)
# [29] = Inhibition of JAK/STAT signaling pathway in human CD4+ve Th cells assessed as inhibition of IL-2 stimulated STAT5 phosphorylation at Y694 residue preincubated for 1 hr followed by IL-2 stimulation and measured after 15 mins by flow cytometry analysis; format: cell-based
# [30] = Inhibition of JAK/STAT signaling pathway in human CD8-positive T cells assessed as inhibition of IL-2 stimulated STAT5 phosphorylation at Y694 residue preincubated for 1 hr followed by IL-2 stimulation and measured after 15 mins by flow cytometry analysis; format: cell-based; details: CD8-positive T cell
# [31] = Inhibition of JAK/STAT signaling pathway in human CD4+ve Th cells assessed as inhibition of IL-4 stimulated STAT6 phosphorylation at Y641 residue preincubated for 1 hr followed by IL-4 stimulation and measured after 15 mins by flow cytometry analysis; format: cell-based
# [32] = Inhibition of JAK/STAT signaling pathway in human CD8-positive T cells assessed as inhibition of IL-4 stimulated STAT6 phosphorylation at Y641 residue preincubated for 1 hr followed by IL-4 stimulation and measured after 15 mins by flow cytometry analysis; format: cell-based; details: CD8-positive T cell
# [33] = Inhibition of JAK/STAT signaling pathway in human CD14 positive monocytes assessed as inhibition of IL-4 stimulated STAT6 phosphorylation at Y641 residue preincubated for 1 hr followed by IL-4 stimulation and measured after 15 mins by flow cytometry analysis; format: cell-based
# [34] = Inhibition of JAK/STAT signaling pathway in human CD19 positive B cells assessed as inhibition of IL-4 stimulated STAT6 phosphorylation at Y641 residue preincubated for 1 hr followed by IL-4 stimulation and measured after 15 mins by flow cytometry analysis; format: cell-based; details: CD19 positive B cell
# [35] = Inhibition of JAK/STAT signaling pathway in human CD14 positive monocytes assessed as inhibition of IL-6 stimulated STAT3 phosphorylation at Y705 residue preincubated for 1 hr followed by IL-6 stimulation and measured after 15 mins by flow cytometry analysis; format: cell-based
# [36] = Inhibition of JAK/STAT signaling pathway in human CD14 positive monocytes assessed as inhibition of GM-CSF stimulated STAT5 phosphorylation at Y694 residue preincubated for 1 hr followed by GM-CSF stimulation and measured after 15 mins by flow cytometry analysis; format: cell-based
# [37] = Cytotoxicity against human CLL cells assessed inhibition of cell growth incubated for 72 hrs by propidium iodide staining based flow cytometry analysis; format: functional
# [38] = biological target: T5, Receptor-type tyrosine-protein kinase FLT3 (Homo sapiens, UniProt P36888)
# T5 sequence (P36888 whole entry): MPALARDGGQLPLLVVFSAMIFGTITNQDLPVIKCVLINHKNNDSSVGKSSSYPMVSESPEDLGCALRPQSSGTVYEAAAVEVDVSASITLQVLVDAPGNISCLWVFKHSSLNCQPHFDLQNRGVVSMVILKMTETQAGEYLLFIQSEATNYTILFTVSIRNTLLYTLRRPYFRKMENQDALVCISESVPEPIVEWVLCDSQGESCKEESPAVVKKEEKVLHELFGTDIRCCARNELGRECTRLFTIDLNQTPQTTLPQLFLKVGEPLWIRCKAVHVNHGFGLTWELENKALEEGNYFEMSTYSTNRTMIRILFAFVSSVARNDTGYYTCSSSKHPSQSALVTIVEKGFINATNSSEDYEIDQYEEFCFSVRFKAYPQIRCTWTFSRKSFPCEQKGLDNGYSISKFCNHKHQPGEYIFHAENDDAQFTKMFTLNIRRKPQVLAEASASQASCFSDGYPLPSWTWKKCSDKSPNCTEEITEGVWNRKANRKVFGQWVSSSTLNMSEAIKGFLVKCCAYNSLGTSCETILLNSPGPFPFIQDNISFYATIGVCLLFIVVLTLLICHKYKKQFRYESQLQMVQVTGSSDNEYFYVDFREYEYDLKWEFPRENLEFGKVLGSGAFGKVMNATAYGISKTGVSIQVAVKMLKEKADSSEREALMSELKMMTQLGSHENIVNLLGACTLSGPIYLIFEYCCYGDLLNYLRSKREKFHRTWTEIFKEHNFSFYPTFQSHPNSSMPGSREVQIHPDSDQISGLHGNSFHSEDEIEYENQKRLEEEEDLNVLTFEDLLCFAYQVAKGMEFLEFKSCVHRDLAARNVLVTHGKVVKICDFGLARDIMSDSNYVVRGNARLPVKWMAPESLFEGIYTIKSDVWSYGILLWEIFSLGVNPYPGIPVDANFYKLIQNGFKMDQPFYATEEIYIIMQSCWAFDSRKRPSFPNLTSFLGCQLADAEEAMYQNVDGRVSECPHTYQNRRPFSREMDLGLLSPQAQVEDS
smiles,measurement,setting,value
O=C1Nc2c(Br)cccc2/C1=C1/Nc2ccccc2/C1=N\OCCN1CCNCC1,IC50,[1],> 10000 nM
C=CC(=O)N1C[C@H](Nc2ncnc3[nH]ccc23)CC[C@@H]1C [RITLECITINIB],IC50,[2],155 nM
O=C1Nc2cc(Br)ccc2/C1=C1/Nc2ccccc2/C1=N\OCCN1CCNCC1,IC50,[3],600 nM
same,IC50,[1],28 nM
same,IC50,[4],50 nM
same,IC50,[5],0.2 nM
same,inhibition in vivo at 25 mg/kg,[6],50%
N#CCC1CCN(c2nc(Nc3ccc(N4CCC(O)CC4)cc3)c3c(=O)[nH]ncc3n2)CC1 [GUSACITINIB],IC50,[7],46 nM
same,IC50,[8],4 nM
same,IC50,[9],11 nM
same,IC50,[10],8 nM
same,IC50,[11],5 nM
COc1ccc2c(c1)/C(=C1/Nc3ccccc3/C1=N\OCC(O)CO)C(=O)N2 (centres undefined),IC50,[12],10.4 nM
same,IC50,[13],10.4 nM
same,IC50,[14],74.1 nM
same,IC50,[15],0.7 nM
same,IC50,[16],680 nM
CCS(=O)(=O)N1CCN(c2ccc(Nc3ncc(C(N)=O)c(NC4CC4)n3)cc2)CC1 [CERDULATINIB],IC50,[17],4 nM
same,IC50,[18],4 nM
same,IC50,[19],4 nM
same,IC50,[20],4 nM
same,IC50,[21],4 nM
same,IC50,[22],4 nM
same,IC50,[23],4 nM
same,IC50,[24],4 nM
same,IC50,[25],4 nM
same,IC50,[26],4 nM
same,IC50,[27],4 nM
same,IC50,[28],4 nM
same,IC50,[29],< 1000 nM
same,IC50,[30],< 1000 nM
same,IC50,[31],< 1000 nM
same,IC50,[32],< 1000 nM
same,IC50,[33],< 1000 nM
same,IC50,[34],< 1000 nM
same,IC50,[35],< 1000 nM
same,IC50,[36],> 4000 nM
same,IC50,[37],370 nM
same,IC50,[38],4 nM
